In the supplement of paper PMC10307832:

What was measured:
Experiment in all cases: relative viability (nuclei count vs DMSO), 5 days (fraction); higher = more cells survive
RO-3306 + Crizotinib = compound: C1=CC2=C(C=CC(=C2)C=C3C(=O)NC(=NCC4=CC=CS4)S3)N=C1 [RO-3306] + C[C@@H](Oc1cc(-c2cnn(C3CCNCC3)c2)cnc1N)c1c(Cl)ccc(F)c1Cl [Crizotinib] (partner 1 µM)
Procedure, shortened: (§1)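 Lung cancer cell lines, seeded in 1536-well plates, were treated the following day by pin tool with a single drug or with five library-drug doses (not always all listed) in √10 steps on top of a fixed anchor-drug dose. Cells were fixed and nuclei stained in one step after 5 days, and nuclei were counted. Relative viability is the nuclei count for treated wells divided by that for vehicle wells, reported as medians of duplicate plates.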

[1] = compound: O=S(=O)(c1ccccc1)N(CC(F)(F)F)c1ccc(C(O)(C(F)(F)F)C(F)(F)F)cc1 + COc1cccc2cc(-c3nc([C@H]4CC[C@H](C(=O)O)CC4)n4ncnc(N)c34)[nH]c12 [OSI-027] (partner 0.5 µM)
Procedure, shortened: as §1

[2] = compound: O=S(=O)(c1ccccc1)N(CC(F)(F)F)c1ccc(C(O)(C(F)(F)F)C(F)(F)F)cc1 + Cc1nc(Nc2ncc(C(=O)Nc3c(C)cccc3Cl)s2)cc(N2CCN(CCO)CC2)n1 [Dasatinib] (partner 0.075 µM)
Procedure, shortened: as §1

RO-3306 + Decitabine = compound: C1=CC2=C(C=CC(=C2)C=C3C(=O)NC(=NCC4=CC=CS4)S3)N=C1 [RO-3306] + Nc1ncn([C@H]2C[C@H](O)[C@@H](CO)O2)c(=O)n1 [Decitabine] (partner 2 µM)
Procedure, shortened: as §1

Row | Cell Line | relative viability (RO-3306 + Crizotinib; first compound 0.01 µM) | relative viability (RO-3306 + Crizotinib; first compound 0.03162 µM) | relative viability (RO-3306 + Crizotinib; first compound 0.1 µM) | relative viability (RO-3306 + Crizotinib; first compound 0.3162 µM) | relative viability (RO-3306 + Crizotinib; first compound 1 µM) | relative viability ([1]; first compound 0.8 µM) | relative viability ([1]; first compound 2.53 µM) | relative viability ([1]; first compound 8 µM) | relative viability ([2]; first compound 0.8 µM) | relative viability ([2]; first compound 2.53 µM) | relative viability ([2]; first compound 8 µM) | relative viability (RO-3306 + Decitabine; first compound 0.01 µM) | relative viability (RO-3306 + Decitabine; first compound 0.03162 µM) | relative viability (RO-3306 + Decitabine; first compound 0.1 µM) | relative viability (RO-3306 + Decitabine; first compound 0.3162 µM) | relative viability (RO-3306 + Decitabine; first compound 1 µM)
1 | NCI-H1915 | 1.07 | 0.783 | 0.882 | 0.903 | 0.876 | 0.643 | 0.646 | 0.649 | 0.284 | 0.276 | 0.291 | 0.245 | 0.262 | 0.252 | 0.239 | 0.251
2 | NCI-H1944 | 1.11 | 0.98 | 1.16 | 1.21 | 1.03 | 0.423 | 0.385 | 0.401 | 0.222 | 0.233 | 0.191 | 0.424 | 0.432 | 0.424 | 0.453 | 0.376
3 | NCI-H1975 | 1.18 | 0.815 | 1.06 | 1.04 | 0.997 | 0.885 | 0.641 | 0.71 | 0.353 | 0.339 | 0.298 | 0.336 | 0.386 | 0.376 | 0.405 | 0.5
4 | NCI-H1993 | – | 0.803 | 0.895 | 0.867 | 0.817 | 0.58 | 0.341 | 0.552 | 0.451 | 0.441 | 0.544 | 0.616 | 0.493 | 0.486 | 0.575 | 0.657
5 | NCI-H2009 | 1.05 | 0.976 | 1.02 | 1.07 | 1.04 | 0.588 | 0.567 | 0.568 | 0.241 | 0.249 | 0.302 | 0.385 | 0.373 | 0.351 | 0.382 | 0.371
6 | NCI-H2023 | 0.644 | 0.6 | 0.612 | 0.593 | 0.621 | 0.41 | 0.279 | 0.286 | 0.547 | 0.434 | 0.369 | 0.25 | 0.285 | 0.208 | 0.218 | 0.213
7 | NCI-H2085 | 0.677 | 0.715 | 0.774 | 0.775 | 0.791 | 0.98 | 0.718 | 0.769 | 0.226 | 0.238 | 0.204 | 0.54 | 0.506 | 0.463 | 0.539 | 0.578
8 | NCI-H2087 | 1 | 0.902 | 1.04 | 0.893 | 0.945 | 0.6 | 0.487 | 0.622 | 0.72 | 0.713 | 0.74 | 0.296 | 0.276 | 0.253 | 0.251 | 0.25
9 | NCI-H2126 | 1.08 | 1.01 | 1.08 | 1.06 | 1.04 | 0.819 | 0.673 | 0.717 | 0.753 | 0.634 | 0.535 | 0.528 | 0.561 | 0.637 | 0.586 | 0.57
10 | NCI-H2170 | 1.34 | 0.758 | 1.15 | 1.24 | 1.13 | 0.653 | 0.663 | 0.685 | 0.568 | 0.588 | 0.444 | 0.473 | 0.433 | 0.471 | 0.458 | 0.486
11 | NCI-H2347 | 0.675 | 0.691 | 0.718 | 0.7 | 0.656 | 0.699 | 0.445 | 0.302 | 0.263 | 0.24 | 0.289 | 0.643 | 0.597 | 0.592 | 0.574 | 0.645
12 | NCI-H2405 | 0.863 | 0.786 | 0.864 | 0.828 | 0.794 | 0.674 | 0.645 | 0.681 | 0.117 | 0.15 | 0.134 | 0.703 | 0.751 | 0.803 | 0.685 | 0.727
13 | NCI-H3122 | 0.253 | 0.262 | 0.244 | 0.244 | 0.283 | 1.18 | 0.807 | 1.14 | 0.725 | 0.525 | 0.817 | 0.406 | 0.345 | 0.379 | 0.461 | 0.42
14 | PC-3 [JPC-3] | 1.03 | 0.971 | 0.965 | 1.03 | 0.951 | 0.864 | 0.744 | 0.785 | 1.03 | 1.05 | 0.972 | 0.84 | 0.777 | 0.82 | 0.802 | 0.817
15 | PC-14 | 0.977 | 0.841 | 1.03 | 0.864 | 0.836 | 0.991 | 0.886 | 0.44 | 0.265 | 0.213 | 0.106 | 0.196 | 0.209 | 0.222 | 0.277 | 0.244
16 | RERF-LC-KJ | 0.848 | 1.03 | 0.797 | 0.848 | 0.95 | 0.545 | 0.599 | 0.556 | 0.753 | 0.652 | 0.641 | 0.763 | 0.715 | 0.689 | 0.75 | 0.665
17 | SK-LU-1 | 0.991 | 0.84 | 1.03 | 0.935 | 0.716 | 0.355 | 0.286 | 0.358 | 0.161 | 0.166 | 0.177 | 0.657 | 0.537 | 0.597 | 0.643 | 0.56
18 | SK-MES-1 | 1.1 | 0.867 | 0.969 | 0.991 | 1.07 | 0.639 | 0.647 | 0.443 | 0.318 | 0.332 | 0.255 | 0.341 | 0.406 | 0.327 | 0.352 | 0.371
19 | SW 1573 | 0.879 | 0.62 | 0.771 | 0.865 | 0.606 | 0.863 | 0.619 | 0.487 | 0.576 | 0.46 | 0.451 | 0.537 | 0.461 | 0.401 | 0.507 | 0.45
